# In patent US4889859A, “Pyrido[2,3-d]pyrimidine derivatives” (priority 1988, dated 1989):
# Tests used:
# [1] = tested on: human leukemia cell line (CCRF-CEM); test: IC50 determined in whole cell human leukemia cell line (CCRF-CEM); format: cell-based
# Description: Representative IC50 values determined in whole cell human leukemia cell line (CCRF-CEM) are as follows: […]
# mouse L1210 leukemia = conditions: literature; cited from earlier work
# [2] = literature; cited from earlier work
# dihydrofolate reductase = conditions: literature; cited from earlier work
# 6C3HED lymphosarcoma = 6C3HED lymphosarcoma in mice; format: in vivo
# [3] = tested on: C3H mammary adenocarcinoma; test: C3H mammary adenocarcinoma implanted in mice, intraperitoneal treatment for five days; format: in vivo; conditions: intraperitoneally for five days
# Protocol: At a dosage of 100 mg/kg, 80% inhibition was observed.
smiles,measurement,setting,value
"Nc1nc(O)c2c(n1)NCC(CCc1ccc(C(=O)N[C@@H](CCC(=O)O)C(=O)O)c(Cl)c1)C2 (stereo partly drawn) [F, N-(2-chloro-4-[2-(2-amino-4-hydroxy-5,6,7,8-tetrahydropyrido[2,3-d]pyrimidin-6-yl)ethyl]benzoyl)-L-glutamic acid]",IC50,[1],0.027 µg/mL
"Nc1nc(O)c2c(n1)NCC(CCc1ccc(F)c(C(=O)N[C@@H](CCC(=O)O)C(=O)O)c1)C2 (stereo partly drawn) [D, N-(2-fluoro-5-[2-(2-amino-4-hydroxy-5,6,7,8-tetrahydropyrido[2,3-d]pyrimidin-6-yl)ethyl]benzoyl)-L-glutamic acid]",IC50,[1],0.1 µg/mL
"Nc1nc2ccc(CCc3ccc(C(=O)N[C@@H](CCC(=O)O)C(=O)O)cc3)cc2c(=O)[nH]1 [5,8,10-trideazafolic acid]",activity against mouse L1210 leukemia,mouse L1210 leukemia,only marginal activity
"Nc1nc(N)c2cc(CCc3ccc(C(=O)N[C@@H](CCC(=O)O)C(=O)O)cc3)ccc2n1 [5,8,10-trideazaaminopterin]",activity against mouse L1210 leukemia,mouse L1210 leukemia,exhibits activity
"Nc1nc(N)c2nc(CCc3ccc(C(=O)N[C@@H](CCC(=O)O)C(=O)O)cc3)ccc2n1 [8,10-Dideazaaminopterin]",antimetabolic activity,[2],active
Nc1nc2ncc(CCc3ccc(C(=O)N[C@@H](CCC(=O)O)C(=O)O)cc3)nc2c(=O)[nH]1 [10-deazafolic acid],antimetabolic activity,[2],no significant activity
"Nc1nc2ccc(CCc3ccc(C(=O)N[C@@H](CCC(=O)O)C(=O)O)cc3)nc2c(=O)[nH]1 [8,10-Dideazafolic acid]",dihydrofolate reductase inhibition,dihydrofolate reductase,only marginally effective
Nc1nc2ncc(CNc3ccc(C(=O)N[C@@H](CCC(=O)O)C(=O)O)cc3)cc2c(=O)[nH]1 [5-Deazafolic acid],cytotoxicity,[2],only weakly cytotoxic
Nc1nc(N)c2nc(CCc3ccc(C(=O)N[C@@H](CCC(=O)O)C(=O)O)cc3)cnc2n1 [10-Deazaaminopterin],antimetabolic activity,[2],highly active
"Nc1nc(O)c2c(n1)NCC(CCc1cccc(C(=O)N[C@@H](CCC(=O)O)C(=O)O)c1)C2 (stereo partly drawn) [A, N-(3-[2-(2amino-4-hydroxy-5,6,7,8-tetrahydropyrido[2,3-d]pyrimidin-6-yl)ethyl]benzoyl)-L-glutamic acid]",IC50,[1],0.015 µg/mL
"CN(Cc1cnc2nc(N)nc(N)c2n1)c1ccc(C(=O)N[C@@H](CCC(=O)O)C(=O)O)cc1 [Amethopterin, 10-methylaminopterin]",dihydrofolate reductase inhibition,dihydrofolate reductase,inhibits dihydrofolate reductase
"Nc1nc(O)c2c(n1)NCC(CCc1ccc(C(=O)N[C@@H](CCC(=O)O)C(=O)O)c(F)c1)C2 (stereo partly drawn) [Compound H, N-(2-fluoro-4-[2-(2-amino-4-hydroxy-5,6,7,8-tetrahydropyrido[2,3-d]pyrimidin-6-yl)ethyl]benzoyl)-L-glutamic acid]",IC50,[1],0.004 µg/mL
same,% INHIBITION,6C3HED lymphosarcoma; dose 25 (MK/KG),94%
same,TOXIC/TOTAL,6C3HED lymphosarcoma; dose 25 (MK/KG),0/9
same,% INHIBITION,6C3HED lymphosarcoma; dose 50 (MK/KG),95%
same,TOXIC/TOTAL,6C3HED lymphosarcoma; dose 50 (MK/KG),0/10
same,% INHIBITION,6C3HED lymphosarcoma; dose 100 (MK/KG),100%
same,TOXIC/TOTAL,6C3HED lymphosarcoma; dose 100 (MK/KG),0/10
same,% INHIBITION,6C3HED lymphosarcoma; dose 200 (MK/KG),100%
same,TOXIC/TOTAL,6C3HED lymphosarcoma; dose 200 (MK/KG),0/10
same,toxicity,[3]; 30 mg/kg and 100 mg/kg,No toxicity was observed
same,inhibition,[3]; 30 mg/kg,72%
same,inhibition,[3]; 100 mg/kg,80%
